# In the NIST ThermoML archive (doi:10.1016/j.jct.2009.10.007):
# ± gives the expanded uncertainty stated by the source.
# Test: refractive index (Na D-line) (dimensionless); mn = molality of the nth substance listed, in mol/kg
# Settings: 308.15 K, 101 kPa, Liquid, Standard Abbe refractometry
refractive index (m1 = 0.034),refractive index (m1 = 0.0682),refractive index (m1 = 0.1015),refractive index (m1 = 0.1424),refractive index (m1 = 0.1771),refractive index (m1 = 0.2157),refractive index (m1 = 0.2524),refractive index (m1 = 0.2847),refractive index (m1 = 0.3319),refractive index (m1 = 0.3674),refractive index (m2 = 0),SMILES
1.3328 ± 0.0005,1.3345 ± 0.0005,1.3361 ± 0.0005,1.3379 ± 0.0005,1.3393 ± 0.0005,1.341 ± 0.0005,1.3425 ± 0.0005,1.3438 ± 0.0005,1.3456 ± 0.0005,1.3469 ± 0.0005,,O=C([O-])CC(O)(CC(=O)[O-])C(=O)[O-].[Na+].[Na+].[Na+] [trisodium citrate] + O
,,,,,,,,,,1.3311 ± 0.0005,O [water] + O=C([O-])CC(O)(CC(=O)[O-])C(=O)[O-].[Na+].[Na+].[Na+]
,,,,,,,,,,1.3311 ± 0.0005,O [water] + CCCCn1cc[n+](C)c1.[Br-]
